# Laboratory results: patent US7547804B2, “Compounds, compositions, and methods employing same” (Myriad Genetics, Inc., priority 2002, dated 2009)
# pEC50: −log10 of the molar value.
# Tested on: LNCaP cell lines
# Assay: WST-1 Cell Proliferation and Viability Assay
# Type: cell-based
# Details: Homo sapiens; LNCaP cells, compound incubation 18-72 hours
# Experimental: WST-1 Cell Proliferation and Viability Assay
# Cell proliferation and cell viability was assessed using the tetrazolium salt WST-1 (Roche Applied Science, Indianapolis Ind.). The assay is based on the cleavage of WST-1 (light red) by mitochondrial dehydrogenase causing the formation of formazan (dark red), which can be measured on an optical density (O.D.) reader. LNCaP cell lines were plated in 96 well tissue culture plates (Corning Costar, N.Y.) at a density of 5000 cells/well in 150 μl complete media phenol-red free (RPMI-1640 [Invitrogen, Carlsbad Calif.] and 10% fetal calf serum). This plate is termed the assay plate. After the cells are plated, they are then incubated overnight at 37 degrees Celsius in a humidified chamber containing 5% CO2 (incubator).
# Compounds are added to the assay plate in 50 μl of complete media and 0.4% DMSO (v:v) making the final DMSO concentration 0.1%. The assay plate is then returned to the incubator for 18-72 hours. WST-1 reagent is then added (20 μl/well) and the plate is placed on an ELISA plate shaker for 30 minutes at room temperature. Plates are then transferred back to the incubator for an additional 3 hours. Plates are then read on a 96 well plate O.D. reader at A490-A650.
row,SMILES,pEC50
1,O=C(Nc1cccc(OCCc2ccccc2)c1)c1cc(-c2ccc(F)cc2F)ccc1O [Compound 226],5.15
2,COc1ccccc1CCOc1cccc(NC(=O)c2ccc(C)cc2O)c1 [Compound 208],4.68
3,O=C(Nc1cc(Cl)ccc1OCCC1CC1)c1cc(Cl)ccc1O [Compound 288],5.48
4,Cc1cccc(CCOc2cccc(NC(=O)c3cc(Cl)ccc3O)c2)c1 [Compound 57],4.82
5,O=C(NCCc1ccc(OCc2ccccc2)c(OCc2ccccc2)c1)c1cc(Cl)ccc1O [Compound 69],4.85
6,O=C(Nc1cccc(OCCC2CCCCC2)c1)c1cc(Cl)ccc1O [Compound 46],5.30
7,O=C(Nc1ccccc1)c1cc(Cl)ccc1O [Compound 168],4.77
8,O=C(Nc1cc(Cl)ccc1OCc1ccccc1)c1cc(Cl)ccc1O [Compound 289],5.48
9,O=C(NCc1cccc(-c2ccccc2)c1)c1cc(F)ccc1O [Compound 190],4.46
10,O=C(NCc1cc(F)cc(C(F)(F)F)c1)c1cc(Cl)ccc1O [Compound 320],4.76
11,O=C(Nc1cccc(OCCc2ccccc2)c1)c1cc(F)ccc1O [Compound 184],4.82
12,Cc1cc(C)c(CCOc2cccc(NC(=O)c3cc(Cl)ccc3O)c2)c(C)c1 [Compound 62],5.40
13,COc1ccccc1CCOc1cccc(NC(=O)c2cc(-c3cc4ccccc4s3)ccc2O)c1 [Compound 354],5.14
14,COc1ccc(C(=O)Nc2cccc(OCCc3ccccc3OC)c2)c(O)c1 [Compound 182],4.64
15,Cc1ccccc1CCOc1cccc(NC(=O)c2cc(Cl)ccc2O)c1 [Compound 55],4.82
16,COCCN(C)c1ccc(NC(=O)c2cc(Cl)ccc2O)c(OCCc2cccc(C(F)(F)F)c2)c1 [Compound 369],5.40
17,COc1ccccc1CCCOc1cccc(NC(=O)c2cc(Cl)ccc2O)c1 [Compound 16],5.10
18,O=C(Nc1cc(Cl)ccc1OCCc1ccccc1)c1cc(Cl)cc([N+](=O)[O-])c1O [Compound 294],4.72
19,COc1ccccc1CCOc1cccc(NC(=O)c2cc(Cl)c(F)cc2O)c1 [Compound 355],4.82
20,COc1ccccc1CCOc1cccc(NC(=O)c2cc(-c3ccsc3)ccc2O)c1 [Compound 335],4.89
21,O=C(NCc1cccc(OCCc2ccccc2)c1)c1cc(Cl)ccc1O [Compound 66],4.30

row,SMILES,pEC50
1,CC(COc1cccc(NC(=O)c2cc(Cl)ccc2O)c1)c1ccccc1 (centres unmarked) [Compound 19],5.15
2,Cc1ccc(O)c(C(=O)Nc2cccc(OCCc3ccccc3)c2)c1 [Compound 212],4.70
3,O=C(Nc1cc(Cl)ccc1OC1CCCC[C@H]1c1ccccc1)c1cc(Cl)ccc1O (some centres unmarked) [Compound 98],5.40
4,O=C(Nc1cccc(CNc2ccccc2)c1)c1cc(Cl)ccc1O [Compound 36],4.68
5,CN(CCc1ccccn1)c1ccc(NC(=O)c2cc(Cl)ccc2O)c(OCCc2cccc(C(F)(F)F)c2)c1 [Compound 376],5.14
6,O=C(NCCc1cccc(OCCc2ccccc2)c1)c1cc(Cl)ccc1O [Compound 143],4.85
7,Cc1ccc(C(=O)NCc2cccc(-c3ccccc3)c2)c(O)c1 [Compound 205],4.37
8,CN(CCc1ccccn1)c1ccc(NC(=O)c2cc(Cl)ccc2O)cc1C(F)(F)F [Compound 364],5.15
9,CS(=O)(=O)c1ccc(CCOc2ccc(Cl)cc2NC(=O)c2cc(Cl)ccc2O)cc1 [Compound 286],5.00
10,COc1ccccc1CCOc1cccc(NC(=O)c2cc(-c3cccc(C(F)(F)F)c3)ccc2O)c1 [Compound 352],5.15
11,COc1ccccc1CCOc1cccc(NC(=O)c2ccccc2O)c1 [Compound 198],4.68
12,COc1ccccc1CCOc1cccc(NC(=O)c2cc(-c3ccccc3OC)ccc2O)c1 [Compound 343],4.77
13,O=C(Nc1cccc(OCCc2ccccc2)c1)c1ccccc1O [Compound 197],4.59
14,O=C(Nc1cc(C(F)(F)F)ccc1NCCc1ccccc1Cl)c1cc(Cl)ccc1O [Compound 276],5.40
15,O=C(NCCc1cccc(OCc2ccccc2)c1)c1cc(Cl)ccc1O [Compound 90],4.74
16,COc1ccccc1CCOc1cccc(NC(=O)c2cc(-c3cccc(C(C)C)c3)ccc2O)c1 [Compound 345],5.05
17,COc1ccccc1CCOc1cccc(NC(=O)c2cc(-c3ccc4ccccc4c3)ccc2O)c1 [Compound 347],5.22
18,COC(=O)C=Cc1ccccc1CCOc1ccc(Cl)cc1NC(=O)c1cc(Cl)ccc1O [Compound 302],5.52
19,COc1ccccc1CCOc1cccc(NC(=O)c2cc(-c3cccc(Cl)c3)ccc2O)c1 [Compound 349],5.00
20,Cc1ccc(NC(=O)c2cc(Cl)ccc2O)cc1OCCc1ccccc1 [Compound 45],5.40

# Other lines, results leading:
row,pEC50,SMILES
1,5.52,COc1ccccc1CCOc1ccc(Cl)cc1NC(=O)c1cc(Cl)ccc1O [Compound 133]
2,5.52,COc1ccc(CCOc2ccc(Cl)c(NC(=O)c3cc(Cl)ccc3O)c2)cc1 [Compound 37]
3,5.52,O=C(Nc1cc(C(F)(F)F)ccc1NCC(c1ccccc1)c1ccccc1)c1cc(Cl)ccc1O [Compound 275]
4,5.52,CCC(COc1cccc(NC(=O)c2cc(Cl)ccc2O)c1)c1ccccc1 (centres unmarked) [Compound 42]
5,5.52,O=C(Nc1cccc(Cl)c1)c1cc(Cl)ccc1O [Compound 94]
6,5.54,CN(CC(=O)OC(C)(C)C)c1ccc(NC(=O)c2cc(Cl)ccc2O)c(OCCc2cccc(C(F)(F)F)c2)c1 [Compound 373]
7,5.59,Cc1ccc(OCCc2cccc(C(F)(F)F)c2)cc1NC(=O)c1cc(Cl)ccc1O [Compound 333]
8,5.66,O=C(Nc1cc(Cl)ccc1OCc1cccc(C(F)(F)F)c1)c1cc(Cl)ccc1O [Compound 329]
9,5.70,COc1cccc(CCOc2ccc(Cl)cc2NC(=O)c2cc(Cl)ccc2O)c1 [Compound 112]
10,5.70,CCC(COc1cc(NC(=O)c2cc(Cl)ccc2O)ccc1C)c1ccccc1 (centres unmarked) [Compound 127]
11,5.70,O=C(Nc1cccc(OC2CCCC[C@H]2c2ccccc2)c1)c1cc(Cl)ccc1O (some centres unmarked) [Compound 17]
12,5.70,COc1ccc(CCOc2ccc(Cl)cc2NC(=O)c2cc(Cl)ccc2O)cc1 [Compound 79]
13,5.70,CC(C)(C)c1ccc(OCCc2ccccc2)c(NC(=O)c2cc(Cl)ccc2O)c1 [Compound 102]
14,5.70,O=C(Nc1cc(C(F)(F)F)cc(Cl)c1OCCc1ccc(Cl)cc1)c1cc(Cl)ccc1O [Compound 263]
15,5.70,O=C(Nc1cc(Cl)ccc1Oc1ccc(Cl)c2ccccc12)c1cc(Cl)ccc1O [Compound 31]
16,6.00,CCOCCOc1ccc(C(F)(F)F)cc1NC(=O)c1cc(Cl)ccc1O [Compound 295]
17,6.00,CC(C)c1ccc(CCOc2ccc(Cl)cc2NC(=O)c2cc(Cl)ccc2O)cc1 [Compound 100]
18,6.00,O=C(Nc1cc(C(F)(F)F)ccc1OC1CCCCC1c1ccccc1)c1cc(Cl)ccc1O (centres unmarked) [Compound 280]
19,6.00,O=C(Nc1cc(Cl)ccc1OCCc1ccccc1Cl)c1cc(Cl)ccc1O [Compound 110]
20,6.00,O=C(Nc1cc(C(F)(F)F)ccc1SCCc1ccccc1)c1cc(Cl)ccc1O [Compound 259]
21,6.00,O=C(Nc1cc(C(F)(F)F)ccc1OCCc1ccc(Cl)cc1Cl)c1cc(Cl)ccc1O [Compound 253]
22,6.05,O=C(Nc1cc(C(F)(F)F)ccc1OCCc1ccsc1)c1cc(Cl)ccc1O [Compound 245]
23,6.05,CC(C)C(COc1ccc(C(F)(F)F)cc1NC(=O)c1cc(Cl)ccc1O)c1ccc(Cl)cc1 (centres unmarked) [Compound 283]
24,6.05,O=C(Nc1cc(C(F)(F)F)ccc1OCCc1ccc(OC(F)(F)F)cc1)c1cc(Cl)ccc1O [Compound 162]
25,6.05,O=C(Nc1cc(C(F)(F)F)ccc1OCCc1cccc(OC(F)(F)F)c1)c1cc(Cl)ccc1O [Compound 285]
26,6.10,O=C(Nc1cc(C(F)(F)F)ccc1OCCc1ccc(Cl)cc1)c1cc(Cl)ccc1O [Compound 129]
27,6.15,O=C(Nc1cc(Cl)ccc1OCCc1ccccc1C(F)(F)F)c1cc(Cl)ccc1O [Compound 82]
28,6.15,O=C(Nc1cc(C(F)(F)F)ccc1OCCc1ccc(C(F)(F)F)cc1)c1cc(Cl)ccc1O [Compound 160]

# Same assay, conditions: Homo sapiens; LNCaP cells; flagged "Estimated": based on actual data at different concentrations
row,pEC50,SMILES
1,4.52,O=C(NCc1cc(-c2ccccc2)ccc1Cl)c1cc(Cl)ccc1O [Compound 293]
2,4.52,CCc1ccccc1-c1cccc(CNC(=O)c2cc(Cl)ccc2O)c1 [Compound 146]
3,4.49,COc1ccccc1CCOc1cccc(N(C)C(=O)c2cc(Cl)ccc2OC)c1 [Compound 216]
4,4.52,Cc1ccccc1-c1cccc(CNC(=O)c2cc(Cl)ccc2O)c1 [Compound 144]
5,4.52,O=C(NCc1cccc(C(F)(F)F)c1)c1cc(Cl)ccc1O [Compound 121]
6,4.52,Cc1cc(C)cc(CNC(=O)c2cc(Cl)ccc2O)c1 [Compound 323]
7,4.52,O=C(Nc1ccccc1C(=O)NCc1ccccc1)c1cc(Cl)ccc1O [Compound 255]
8,4.40,O=C(Nc1cc(C(F)(F)F)ccc1N1CCCC(C(=O)O)C1)c1cc(Cl)ccc1O (centres unmarked) [Compound 316]
9,4.70,O=C(NCCc1ccccc1OCc1ccccc1)c1cc(Cl)ccc1O [Compound 119]
10,4.35,COc1ccc(Cl)cc1C(=O)N(C)c1cccc(OCCc2ccccc2)c1 [Compound 215]
11,4.40,O=C(NCc1cc(C(F)(F)F)ccc1Cl)c1cc(Cl)ccc1O [Compound 318]
